These results are taken from ChEMBL document CHEMBL1201862, “PubChem BioAssay data set” (2004).

Test systems include COLO 205; DMS-114; DMS-273; HCT-15; KM-20L2; SF-539; SK-MEL-28; SNB-78; SR; TK-10; HOP-62; LXFL 529; NCI-H522; SW-620; BT-549; DU-145; MCF7; MDA-MB-231; NCI/ADR-RES.
Holding throughout (test): DTP human tumour cell line panel, 48 h

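Assay format: 96-well plates, 48-hour exposure. The concentration for 50% growth inhibition is given as GI50.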 Calls of active or inactive are those of the source. Rule as the data show it: active = GI50 up to about 1.1 µM and inactive = higher.

The term GI50 denotes the concentration that inhibits growth by half.

Consider `CN1CCc2cc(O)c3cc2C1Cc1ccc(cc1)Oc1cc(ccc1O)CC1c2c(cc4c(c2O3)OCO4)CCN1C` (stereo not drawn), for which the GI50 in the experiment with COLO 205 was 13.5 µM (inactive); in the experiment with DMS-114, 18.2 µM (inactive); in the experiment on DMS-273, 24.8 µM (inactive); with HCT-15, 22.5 µM; with KM-20L2 it was 18.2 µM (inactive); with SF-539, 17.3 µM (inactive). The GI50 with SK-MEL-28 is 21.3 µM (inactive); with SNB-78 it was > 100 µM (inactive); in the experiment with SR it was 28.8 µM (inactive); in the experiment with TK-10 it was 24.2 µM (inactive).

`O=c1ccc(=O)c2c(=O)c3ccccc3c(=O)c1=2`: the GI50 is 99.3 µM (inactive) with COLO 205; 29 µM (inactive) in the experiment with DMS-114; 46.7 µM (inactive) in the experiment on DMS-273; 46.2 µM in the experiment with HCT-15; 36.6 µM (inactive) in the experiment with HOP-62; > 100 µM (inactive) with LXFL 529. Besides, the GI50 in the experiment on NCI-H522 was 29.8 µM (inactive); with SF-539, 26 µM (inactive); with SK-MEL-28 it was > 100 µM (inactive); in the experiment on SNB-78, 60.5 µM (inactive); in the experiment with SW-620, 32.7 µM (inactive); with TK-10, > 100 µM (inactive).

Consider `O=[N+]([O-])c1nccn1COCCF`, for which the GI50 in the experiment on COLO 205 is > 100 µM (inactive); in the experiment on DMS-114, > 100 µM (inactive); with HCT-15, greater than 100 µM; in the experiment with HOP-62 it was > 100 µM (inactive); in the experiment with KM-20L2 it was > 100 µM (inactive); with LXFL 529, > 100 µM (inactive). The GI50 with NCI-H522, with SF-539, in the experiment with SK-MEL-28, with SNB-78, with SR and in the experiment on SW-620 was > 100 µM (inactive) in each case. Also, the GI50 in the experiment with TK-10 was > 100 µM (inactive).

`Cc1ccc(C2C(Cl)C(=O)N2NC(=O)c2ccc(N)cc2)cc1` (stereo not drawn): the GI50 with COLO 205 is 22.6 µM (inactive); in the experiment with DMS-114 it was 10.2 µM (inactive); in the experiment with DMS-273, 2.46 µM (inactive); in the experiment with HCT-15, 15.7 µM; in the experiment with HOP-62 it was 22.4 µM (inactive); with KM-20L2, 23.8 µM (inactive). The GI50 was 15.5 µM (inactive) with LXFL 529; 12 µM (inactive) with NCI-H522; 23.9 µM (inactive) with SF-539; 12.4 µM (inactive) in the experiment with SK-MEL-28; 5.46 µM (inactive) in the experiment on SNB-78; 21 µM (inactive) with SW-620. For the same compound, in the experiment with TK-10, the GI50 was 43.6 µM (inactive).

Turning to `CN1c2ccccc2N(C)C23N(C)c4ccccc4N(C)C12N(C)c1ccccc1N3C` (stereo not drawn), the GI50 was > 100 µM (inactive) in the experiment on COLO 205; > 100 µM (inactive) in the experiment with DMS-114; > 100 µM (inactive) in the experiment with DMS-273; greater than 100 µM with HCT-15; 87.1 µM (inactive) with HOP-62; > 100 µM (inactive) in the experiment on KM-20L2. In addition, the GI50 in the experiment with NCI-H522, in the experiment on SF-539, with SK-MEL-28, in the experiment on SW-620 and in the experiment on TK-10 was > 100 µM (inactive) each time.

Turning to `O=C1OC(c2ccccc2)=N/C1=C/NC(Cc1c[nH]c2ccccc12)C(=O)O` (stereo not drawn), the GI50 in the experiment on COLO 205 was > 100 µM (inactive); in the experiment on DMS-114, > 100 µM (inactive); in the experiment with DMS-273 it was > 100 µM (inactive); in the experiment with HCT-15, greater than 100 µM; in the experiment on HOP-62 it was > 100 µM (inactive); with KM-20L2, > 100 µM (inactive). Moreover, the GI50 in the experiment with LXFL 529 is > 100 µM (inactive); in the experiment on NCI-H522, 68.4 µM (inactive); in the experiment on SF-539, > 100 µM (inactive); in the experiment on SK-MEL-28 it was > 100 µM (inactive); with SNB-78 it was > 100 µM (inactive); in the experiment on SR, > 100 µM (inactive). In addition, the GI50 with SW-620 and in the experiment on TK-10 was > 100 µM (inactive) throughout.

On to `[O-]/N=[N+](/[O-])C1CCCCC1=[N+]1CCOCC1` (stereo not drawn), for which the GI50 in the experiment on COLO 205, with DMS-114, with HOP-62, in the experiment with LXFL 529, in the experiment with NCI-H522 and in the experiment with SK-MEL-28 was > 100 µM (inactive) in each case. Besides, the GI50 in the experiment with SNB-78, in the experiment with SR, in the experiment on SW-620 and with TK-10 was > 100 µM (inactive) in each case.

Turning to `COC(=O)c1cc(CC(C)C)c2c(c1)[nH]c1ccccc12`, the GI50 in the experiment on COLO 205 is > 100 µM (inactive); in the experiment on DMS-114, 50.4 µM (inactive); with DMS-273, 53.7 µM (inactive); in the experiment on HCT-15, 52.1 µM; with KM-20L2 it was > 100 µM (inactive); with LXFL 529, > 100 µM (inactive). The GI50 with NCI-H522 is 68.2 µM (inactive); in the experiment with SF-539 it was > 100 µM (inactive); in the experiment on SK-MEL-28 it was > 100 µM (inactive); in the experiment on SW-620, 47.2 µM (inactive); with TK-10, > 100 µM (inactive).

For `NCCCCNCCCNC(=O)c1nc(-c2csc(CCN)n2)sc1Cl`, the GI50 was > 100 µM (inactive) with COLO 205; > 100 µM (inactive) with DMS-114; > 100 µM (inactive) with DMS-273; greater than 100 µM with HCT-15; > 100 µM (inactive) in the experiment with HOP-62; > 100 µM (inactive) in the experiment with KM-20L2. Moreover, the GI50 in the experiment on LXFL 529 was 17.9 µM (inactive); in the experiment on NCI-H522 it was > 100 µM (inactive); in the experiment with SF-539 it was > 100 µM (inactive); with SK-MEL-28 it was > 100 µM (inactive); in the experiment on SNB-78, > 100 µM (inactive); with SR, > 100 µM (inactive). For the same compound, the GI50 in the experiment with SW-620 and in the experiment with TK-10 was > 100 µM (inactive) each time.

As to `Cc1ccc(NCC2(/N=C/c3ccccc3)OC(CO)C(O)C2O)cc1` (stereo not drawn), the GI50 in the experiment on COLO 205 was 42.2 µM (inactive); with DMS-114, 40 µM (inactive); with DMS-273, 31.2 µM (inactive); in the experiment with HCT-15, 26.5 µM; in the experiment on HOP-62 it was 12.4 µM (inactive); in the experiment with KM-20L2 it was 20.8 µM (inactive). Besides, the GI50 with LXFL 529 was 77.6 µM (inactive); in the experiment with NCI-H522, 37.5 µM (inactive); in the experiment with SF-539 it was 41.7 µM (inactive); in the experiment on SK-MEL-28, 62.5 µM (inactive); with SR it was 27.1 µM (inactive); with SW-620, 36.7 µM (inactive). The GI50 in the experiment with TK-10 was > 100 µM (inactive).

As to `Cc1cccc(N(CCC#N)S(=O)(=O)c2ccccc2)c1`, the GI50 in the experiment on BT-549 was > 100 µM (inactive); in the experiment on COLO 205, > 100 µM (inactive); with DU-145 it was > 100 µM (inactive); with HCT-15, greater than 10 µM; with HOP-62, > 100 µM (inactive); in the experiment on MCF7, > 100 µM (inactive). In addition, the GI50 with MDA-MB-231, in the experiment on NCI-H522, in the experiment on NCI/ADR-RES, with SF-539, with SK-MEL-28 and in the experiment with SR was > 100 µM (inactive) throughout. The GI50 in the experiment with SW-620 and in the experiment with TK-10 was > 100 µM (inactive) in each case.

With `O=C(c1cc2ccccc2[nH]1)C(O)(c1cc2ccccc2[nH]1)c1cc2ccccc2[nH]1`, the GI50 is > 246 µM (inactive) with COLO 205; > 246 µM (inactive) in the experiment on DMS-114; > 246 µM (inactive) in the experiment on DMS-273; greater than 246 µM in the experiment on HCT-15; > 246 µM (inactive) in the experiment on HOP-62; > 246 µM (inactive) in the experiment with KM-20L2. In addition, the GI50 in the experiment on LXFL 529 is > 246 µM (inactive); with NCI-H522 it was > 246 µM (inactive); in the experiment on SF-539 it was 129 µM (inactive); with SK-MEL-28 it was > 246 µM (inactive); in the experiment with SR, > 246 µM (inactive); in the experiment with SW-620, > 246 µM (inactive). Also, in the experiment on TK-10, the GI50 was > 246 µM (inactive).
